Laboratory results taken from patent US20070191935A1, “Drug Delivery Stent with Extended In Vivo Drug Release” (Conor Medsystems, Inc., priority 2006, published 2007).

Key:
[1] = in vivo paclitaxel release from stent (explanted stents, total drug load by HPLC)
From the text: The measurement of in vivo paclitaxel release from a stent can be performed according to the following Example.
Stents are implanted in a porcine model and explanted at selected time points by removing the entire artery section. The expanded stents are labeled and frozen. The tissue is removed from the stent by slicing the tissue on the outside of the stent lengthwise, inverting the tissue, and removing the tissue by cutting and turning the tissue inside out. The stent may still be covered by a tough elastic membrane which is then removed by splitting the membrane and peeling it off the stent. For longer time points, there will also be a tub of tissue inside the stent. This tube is separated from the stent with tweezers, turned inside out and pulled out of the stent.
The elution rates of drug from the examples are determined in a standard sink condition experiment.
The total drug load (TDL) of paclitaxel from a stent is determined by extracting all the polymer and drug from the stent in a solvent such as dimethyl sulfoxide (DMSO) or acetonitrile. The amount of paclitaxel in a solution sample is determined by High Pressure Liquid Chromatography (HPLC).
The in vivo release kinetic (RK) for paclitaxel from a stent is determined by running the TDL for multiple explanted time points. The TDL for the explanted samples is subtracted from the TDL of an unimplanted stent to determine the amount of paclitaxel released at each of the explanted time points.

[2] = tested on: in stent neointimal proliferation; experiment: clinical trials, in stent neointimal proliferation; details: in vivo release greater than 60 days from stent

in vivo release of the paclitaxel on the stent in the first 30 days after implantation ([1]; first 30 days after implantation): not more than 40% | complete release of the entire dose of paclitaxel loaded on the stent ([1]; in vivo): ≤ 8 months | time until all the drug loaded on the stent is released ([1]; in vivo, FIG. 4): 90 to 180 days | release rate after day one ([1]; in vivo, after day one, continues for up to about 90 days): under 0.1 μg per day
SMILES: CC(=O)O[C@H]1C(=O)[C@@]2(C)[C@H]([C@H](OC(=O)c3ccccc3)[C@]3(O)C[C@H](OC(=O)[C@H](O)[C@@H](NC(=O)c4ccccc4)c4ccccc4)C(C)=C1C3(C)C)[C@]1(OC(C)=O)CO[C@@H]1C[C@@H]2O [paclitaxel]
in stent neointimal proliferation, longer in vivo release vs more rapid release of the same dosage [2]: lower in stent neointimal proliferation than the more rapid release of the same dosage
